Data set [1] relates to Renilla luciferase reporter gene. Nature of the data set: Renilla luciferase antisense assay in NIH 3T3 cells (dual reporter). In kind it is cell-based, mouse. The following applies: for antisense activity / effect on the luciferase signal: NIH 3T3, without UV irradiation. From the text: The error bars represent the standard deviation of three independent experiments.
These antisense oligomers were transfected into mouse fibroblast cells (NIH 3T3) together with a dual reporter system encoding Renilla luciferase and firefly luciferase as a transfection control.

For data set [2], the system named is complementary RNA sequence (5′ UCCAGAACAAAGGAAACG 3′). Nature of the data set: Melting temperature of PS DNA/RNA hybrids before and after irradiation. The following applies: PS DNA/RNA hybrid; for Mp/° C. +UV: after irradiation (5 min, 365 nm, 23 W); for Mp/° C. −UV: before irradiation. In kind it is binding. From the text:
The capacity of the three and four caging groups to inhibit hybridization of the caged PS DNA oligomer to the complementary RNA sequence (5′ UCCAGAACAAAGGAAACG 3′) [SEQ ID NO 14] was examined. Hybridization was monitored on a BioRad MyiQ RT-PCR thermocycler by conducting a sequence of 3 heating and cooling cycles. […] Complete hybridization was restored upon a 5-minute irradiation at 365 nm for both caged analogs (Table 2).

Data set [3] can be described thus: Stability of the caging group to PCR conditions. In kind it is physicochemical. To be noted: elevated temperatures required for PCR.
Another data set relates to chordin. Nature of the data set: Light-regulation of morpholino activity in zebrafish embryos. In kind it is in vivo. As to the method: Percentages represent the frequency of the pictured phenotype in live fish. A) Non-injected embryo (100%). B) Injection of the non-caged Chordin-0 MO (100%). C) Injection of the caged MO (Chordin-4) −UV irradiation (80%). D) Injection of the caged MO (Chordin-4) +UV irradiation for 60 sec at 365 nm (100%). Identical amounts were injected in each experiment. The expanded blood island (arrows) is indicative of the chordin phenotype.
Injections with the non-caged and caged morpholino oligomers containing four […] monomers targeting chordin were conducted. Zebrafish embryos were injected into the yolk sac at the 1-4 cell stage with ˜1 nl of 500 μm caged Chordin-4 morpholino (5′ AT*CCACAGCAGCCCCT*CCAT*CAT*CC 3′ [SEQ ID NO 2]; T* denotes the caged thymidine; containing 0.15% phenol red to verify injection). Immediately after injection, half of the injected embryos were exposed to 365 nm UV light for 60 sec. The other half was protected from light. Half of the uninjected control embryos were also exposed to 365 nm UV for 60 sec, and no phenotypic differences between ±UV were detected. All embryos were grown at 28° C. for about 28 hours before their phenotypes were photographed. The chordin gene induces dorsalization of the developing embryo and injection of an anti-chordin MO induces a phenotype resembling chordin null-mutant embryos by displaying abnormally shaped somites, an expanded blood island (see arrows in FIG. 5), an abnormal tail fin, and a reduced head (see FIG. 5B compared to the non-injected fish shown in FIG. 5A).

Data set [4] concerns DNA template (plasmid DNA). Nature of the data set: Light-triggered polymerase chain reaction (activation and deactivation). The data set is classed as biochemical. As to the method:
The DNA template (1.5 ng/μL of plasmid DNA) was incubated in the presence of P5 and a reverse primer (5′[…]-GT 3′, [SEQ ID NO 11] 1 μM each; the same reverse primer was used in all PCRs) with nucleotide triphosphates (dNTPs, 0.3 mM each), in Taq Reaction Buffer (10 mM Tris-HCl, 50 mM. KCl, 1.5 mM MgCl2, pH 8.3) and water. Taq DNA Polymerase (3 units/μL) was added to initiate the reaction. Prior to placement in a PCR thermocycler (Eppendor Mastercycler) the reaction was either irradiated for 8 minutes at 365 nm, or maintained in the dark. An initial denaturation at 95° C. was performed, followed by 40 cycles of 95° C. (30 sec), 50° C. (30 sec), and 72° C. (1 min), with a final extension at 72° C. (2 min). The reactions were conducted in triplicate, visualized on a 1% agarose gel, and quantitated (all DNA was quantified by band integration in ethidium bromide stained agarose gels using Image Quant 5.2). […] This experiment represented the first example of a light-activated PCR. While we initially employed irradiation prior to the thermal cycling, temporal control was also achieved by initiating the reaction through irradiation at a specific timepoint. Here, an identical reaction with UV irradiating at cycle 15 was conducted. Prior to irradiation, no PCR product can be detected in reactions conducted with the caged primer P5. In contrast, the non-caged primer P1 lead to the expected exponential amplification.
After achieving photochemical control of the activation of PCR at a specific time point, the possibility to switch-off PCR activity via light irradiation was examined. This was accomplished by designing a self-complementary primer which was predisposed to form a hairpin, rather than act as a PCR primer. By installing caging groups on the complementary portion of this sequence it was possible to block self-hybridization, which enabled the polymerization reaction. The PCR was then stopped by removing the photoactive groups, leading to hairpin formation and primer deactivation (FIG. 7). In order to achieve photochemical deactivation, an appropriate hairpin primer P8 was designed (5′ […] 3′) [SEQ ID NO. 12], and a photocaged analog P9 was synthesized (5′ […] 3′) [SEQ ID NO. 13]. […] However, in the absence of light irradiation the caged hairpin primer P9 was successful in acting as a primer, yielding 137 ng of PCR product (not shown).
Light-regulatory mechanisms were also employed in a temporally controlled fashion by irradiating the caged primer after 10 cycles of PCR. The non-caged primer P8 was used as a control, as it formed a hairpin immediately, blocking Taq DNA polymerase and inhibiting amplification. Because the caged primer P9 was able to bind to the DNA template, amplification occurred. […] At the same point, amplification continued in the non-irradiated reaction with P9.

Data set [5] deals with non-caged complement (5′ CGAACCTGGTCGAAATCAG 3′). Nature of the data set: Melting temperatures of caged and non-caged PCR primers with complementary DNA. The data set is classed as binding. To be noted: for Mp/° C. +UV: after 8 minutes irradiation at 365 nm; for Mp/° C. −UV: before UV, 1 μM primer and complementary DNA; for melting temperature depression: single caging group, versus P1, −UV. As to the method:
The DNA oligomers P1-P7, consisting of 19 nucleotides, a typical length for PCR primers, and containing 0-4 caged thymidines have been synthesized (Table 1). These primers were than analyzed for their annealing and melting properties in the presence of a complementary oligonucleotide.
Melting curves were measured on a BioRad MyiQ RT-PCR thermocycler by conducting a sequence of 3 heating and cooling cycles (1 μM of both primer and complementary DNA with 12.5 μL iQ SYBR Green Supermix to a total volume of 25 μL; 40° C. to 80° C. with a 0.5° C./min ramp). The melting temperatures were determined to be 65.3° C. (P1), 62.1° C. (P2), 54.3° C. (P3), 55.5° C. (P4), and 50.0° C. (P6). […] This effect was less pronounced in P2, perhaps due to the caged T's close proximity to the 5′ terminus, which lead to a lower level of interference with the hybridization of neighboring nucleotides. With the incorporation of additional caging groups in P4-P7, melting temperatures decreased further. However, addition of a single caged thymidine close to the 5′ terminus of P3 had no effect in P4. […] In order to ensure a complete removal of the photolabile group, each primer was irradiated for 8 minutes at 365 nm, and then analyzed in the same melting temperature assay.

Where [6] appears, read: activation experiment, no UV irradiation, 40 cycles.

“And” between values parts separate entries of the source, which are not always exact repeats. Identical values can stand only once. Strand notation (5' to 3'): a small letter for the sugar, then the base; units joined by * are phosphorothioate-linked, units joined directly phosphodiester-linked; [ ] holds rarer units or linkages, { } end groups; capitals alone tell only the bases. [cagedT] = caged thymidine: thymidine bearing a photolabile caging group, removed by UV irradiation at 365 nm; [cageT] = thymidine carrying a photolabile caging group (caged thymidine), removed by 365 nm UV light; [NPOM-T] = NPOM-caged (photocaged) thymidine; d = 2'-deoxy (DNA)

On to “3-Caged: phosphorothioate DNA 5′ CGTTT*CCTTT*GTTCT*GGA 3′, T* NPOM-caged thymidine, SEQ ID NO 17 (DNA dC*dG*dT*dT*d[NPOM-T]*dC*dC*dT*dT*d[NPOM-T]*dG*dT*dT*dC*d[NPOM-T]*dG*dG*dA)”, for which the “antisense activity / effect on the luciferase signal” value in data set [1] was “completely inhibited the antisense activity”. The “Mp/° C. +UV” value in data set [2] came to 39.2 ± 0.6 °C.

Consider “5. Control: control phosphorothioate DNA 5′ TCCAGAACAAAGGAAACG 3′, SEQ ID NO 15 (DNA dT*dC*dC*dA*dG*dA*dA*dC*dA*dA*dA*dG*dG*dA*dA*dA*dC*dG)”, for which the “antisense activity / effect on the luciferase signal” value in data set [1] was “no effect on the luciferase signal”. In addition, in data set [2], the “Mp/° C. −UV” value is “No hybridization was detected”.

Turning to “7. Non-caged: non-caged phosphorothioate DNA targeting Renilla luciferase, 5′ CGTTTCCTTTGTTCTGGA 3′, SEQ ID NO 16”, in data set [1] (NIH 3T3, no UV), the “down-regulation of the Renilla luciferase signal” value is reported as 70%. Further, in data set [2], the “Mp/° C. +UV” value was 39.3 ± 0.8 °C and the “Mp/° C. −UV” value came out at 39.5 ± 0.5 °C. Further, the “Mp/° C. −UV” value in data set [2] (listed as non-caged PS DNA) was “approximately 39 °C”.

Turning to `Cc1cn(C2CC(O)C(CO)O2)c(=O)n(COC(C)c2cc3c(cc2[N+](=O)[O-])OCO3)c1=O` (stereo not drawn) [monomeric caged thymidine, Caged thymidine], the “stability of the caging group to PCR conditions” value in data set [3] is recorded as “unaffected by the elevated temperatures”.

As for “Chordin-4: caged morpholino 5′ AT*CCACAGCAGCCCCT*CCAT*CAT*CC 3′, T* caged thymidine, four 21 monomers (DNA ATCCACAGCAGCCCCTCCATCATCC; morpholino, caged thymidines, chemistry not fully specified)”, the “frequency of the pictured phenotype in live fish” value with chordin (+UV irradiation for 60 sec at 365 nm, chordin phenotype pictured) is 100%; in the data set on chordin (−UV irradiation, wild-type phenotype pictured), 80%. In addition, the “morpholino antisense activity (phenotype)” value in the data set on chordin (protected from light, about 28 hours at 28° C.) was “completely inactive”.

“P1: non-caged 19 nucleotide PCR primer 5′ CTGATTTCGACCAGGTTCG 3′, SEQ ID NO 3 (DNA, backbone not given here) [reference compound]”: the PCR product entry in data set [4] (setting [6]) is “approximately 140 ng”. For the same compound, in data set [5], the “Mp/° C. +UV” value amounted to 65.0 ± 0.8 °C; the “Mp/° C. −UV” value is 65.3 °C and 65.3 ± 0.3 °C.

For “P2: primer 5′ CTGATTTCGACCAGGTTCG 3′ with a single caged thymidine close to the 5′ terminus, SEQ ID NO 4 (DNA, [cageT] at 2, backbone not given here)”, in data set [5], the “Mp/° C. +UV” value amounted to 64.1 ± 0.2 °C; the “Mp/° C. −UV” value was 62.1 °C and 62.1 ± 0.7 °C; the melting temperature depression was determined as 3.2 °C.

“P3: primer 5′ CTGATTTCGACCAGGTTCG 3′ with a single caged thymidine, SEQ ID NO 5 (DNA, [cageT] at 7, backbone not given here)”: in data set [5], the “Mp/° C. +UV” value is 64.1 ± 0.8 °C; the “Mp/° C. −UV” value is 54.3 °C and 54.3 ± 1.1 °C; the melting temperature depression is 11.0 °C.

On to “P4: P3 with an additional caged thymidine close to the 5′ terminus, SEQ ID NO 6 (DNA CTGATTTCGACCAGGTTCG; DNA, [cageT] at 2, 7, backbone not given here)”, for which, in data set [5], the “Mp/° C. +UV” value amounted to 63.8 ± 0.3 °C; the “Mp/° C. −UV” value is 55.5 °C and 55.5 ± 0.5 °C.

On to “P5: primer with three caging groups distributed throughout the DNA oligomer, SEQ ID NO 7 (DNA CTGATTTCGACCAGGTTCG; DNA, [cageT] at 2, 7, 17, backbone not given here)”, for which, in data set [4] (UV irradiation at cycle 15), the DNA amplification entry is “increases exponentially”. Moreover, the PCR product entry in data set [4] (activation experiment, irradiated 8 minutes at 365 nm before cycling, 40 cycles) is on record as “comparable amounts of PCR product as found in the reaction with P1”. Also, the PCR product result in data set [4] (setting [6]) was “only trace amounts”. In data set [5], the “Mp/° C. +UV” value was determined as 64.2 ± 0.2 °C and the “Mp/° C. −UV” value is listed as “No melting temperatures could be measured”.

For “P6: primer with a cluster of three caged thymidines, SEQ ID NO 8 (DNA CTGATTTCGACCAGGTTCG; DNA, [cageT] at 5, 6, 7, backbone not given here)”, in data set [5], the “Mp/° C. +UV” value is 64.5 ± 0.5 °C; the “Mp/° C. −UV” value was 50.0 °C and 50.0 ± 1.0 °C.

Turning to “P7: caged primer 5′ CTGATTTCGACCAGGTTCG 3′, SEQ ID NO 9, probably four caged thymidines (DNA, [cagedT] at 2, 5, 7, 17, backbone not given here; PCR primer)”, in data set [5], the “Mp/° C. +UV” value turned out to be 64.2 ± 0.3 °C and the “Mp/° C. −UV” value is on record as “No melting temperatures could be measured”.

Regarding “P8: non-caged hairpin primer 5′ GGTCAGTAAATTGTTTTTCAATTTACTGACCG 3′, SEQ ID NO 12 (hairpin primer, further chemistry not given here) [reference compound]”, the PCR product result in data set [4] (deactivation (hairpin primer) experiment, no light irradiation, 25 cycles) was “very little PCR product”.

Values taken from patent US8247540B2, “Caged nucleotides and oligonucleotides and their application” (priority 2008, dated 2012).
